Reference: the supplement of paper PMC10307832

Key:
Assay in all cases: relative viability (nuclei count vs DMSO), 5 days (fraction); higher = more cells survive
Erlotinib + Foretinib = compound: C#Cc1cccc(Nc2ncnc3cc(OCCOC)c(OCCOC)cc23)c1 [Erlotinib] + COc1cc2c(Oc3ccc(NC(=O)C4(C(=O)Nc5ccc(F)cc5)CC4)cc3F)ccnc2cc1OCCCN1CCOCC1 [Foretinib] (partner 0.25 µM)
In short: (§1)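 A single step with final 0.05% Triton X-100, 1% formaldehyde and 1 ug/ml Hoechst fixed the cells and stained nuclei 5 days after treatment. Lung cancer cell lines in 1536-well plates had been treated by pin tool the day after seeding with one drug alone or a fixed anchor-drug dose plus five library-drug doses (not always all listed) in √10 steps, and nuclei were counted on 4× images. Relative viability is the ratio of nuclei in treated wells to nuclei in vehicle wells, taken as the median of duplicate plates.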

Erlotinib + AZD7762 = compound: C#Cc1cccc(Nc2ncnc3cc(OCCOC)c(OCCOC)cc23)c1 [Erlotinib] + NC(=O)Nc1cc(-c2cccc(F)c2)sc1C(=O)N[C@H]1CCCNC1 [AZD7762] (partner 0.2 µM)
In short: as §1

AT9283 + Palbociclib = compound: O=C(Nc1c[nH]nc1-c1nc2ccc(CN3CCOCC3)cc2[nH]1)NC1CC1 [AT9283] + CC(=O)c1c(C)c2cnc(Nc3ccc(N4CCNCC4)cn3)nc2n(C2CCCC2)c1=O [Palbociclib] (partner 0.5 µM)
In short: as §1

AT9283 + Lapatinib = compound: O=C(Nc1c[nH]nc1-c1nc2ccc(CN3CCOCC3)cc2[nH]1)NC1CC1 [AT9283] + CS(=O)(=O)CCNCc1ccc(-c2ccc3ncnc(Nc4ccc(OCc5cccc(F)c5)c(Cl)c4)c3c2)o1 [Lapatinib] (partner 2 µM)
In short: as §1

AT9283 + AZD7762 = compound: O=C(Nc1c[nH]nc1-c1nc2ccc(CN3CCOCC3)cc2[nH]1)NC1CC1 [AT9283] + NC(=O)Nc1cc(-c2cccc(F)c2)sc1C(=O)N[C@H]1CCCNC1 [AZD7762] (partner 0.2 µM)
In short: as §1

| Cell Line | relative viability (Erlotinib + Foretinib; first compound 0.6325 µM) | relative viability (Erlotinib + Foretinib; first compound 2 µM) | relative viability (Erlotinib + AZD7762; first compound 0.02 µM) | relative viability (Erlotinib + AZD7762; first compound 0.2 µM) | relative viability (Erlotinib + AZD7762; first compound 0.6325 µM) | relative viability (Erlotinib + AZD7762; first compound 2 µM) | relative viability (AT9283 + Palbociclib; first compound 0.003 µM) | relative viability (AT9283 + Palbociclib; first compound 0.03 µM) | relative viability (AT9283 + Palbociclib; first compound 0.09487 µM) | relative viability (AT9283 + Palbociclib; first compound 0.3 µM) | relative viability (AT9283 + Lapatinib; first compound 0.003 µM) | relative viability (AT9283 + Lapatinib; first compound 0.03 µM) | relative viability (AT9283 + Lapatinib; first compound 0.09487 µM) | relative viability (AT9283 + Lapatinib; first compound 0.3 µM) | relative viability (AT9283 + AZD7762; first compound 0.003 µM) | relative viability (AT9283 + AZD7762; first compound 0.03 µM) | relative viability (AT9283 + AZD7762; first compound 0.09487 µM) | relative viability (AT9283 + AZD7762; first compound 0.3 µM) | relative viability (Erlotinib + Foretinib; first compound 0.02 µM) | relative viability (Erlotinib + Foretinib; first compound 0.2 µM) |
| --- | --- | --- | --- | --- | --- | --- | --- | --- | --- | --- | --- | --- | --- | --- | --- | --- | --- | --- | --- | --- |
| 201T | 1.17 | 0.888 | 0.596 | 0.57 | 0.619 | 0.546 | 0.352 | 0.362 | 0.265 | 0.279 | 0.816 | 0.96 | 0.904 | 0.409 | 0.609 | 0.527 | 0.45 | 0.31 |  |  |
| A549 | 0.902 | 0.786 |  |  |  |  |  |  |  |  | 1.02 | 0.0919 | 0.0686 | 0.0884 |  |  |  |  | 0.795 | 0.947 |
| A-427 | 1.15 | 1.02 | 0.735 | 0.763 | 0.843 | 0.767 | 0.523 | 0.39 | 0.299 | 0.3 | 0.936 | 0.897 | 0.671 | 0.219 | 0.675 | 0.306 | 0.227 | 0.269 | 1.17 | 1.01 |
| ABC-1 | 1.06 | 0.818 | 0.789 |  | 0.647 | 0.507 | 0.664 | 0.381 | 0.295 | 0.325 | 0.938 | 1.19 | 0.476 | 0.46 | 0.83 | 0.365 | 1.18 | 0.229 | 1.03 | 0.547 |
| BEN | 1 | 0.872 | 0.554 | 0.824 | 0.843 |  | 0.458 | 0.456 | 0.412 | 0.356 | 0.582 | 0.546 | 0.158 | 0.243 | 0.595 | 0.62 | 0.327 | 0.321 | 0.679 | 0.663 |
| CAL-12T | 0.513 | 0.484 | 0.63 | 0.688 | 0.529 | 0.544 | 0.543 | 0.257 | 0.165 | 0.217 | 0.587 | 0.299 | 0.23 | 0.238 | 0.584 | 0.502 | 0.347 | 0.189 | 1.04 | 1.04 |
| COR-L23 | 1.18 | 0.928 |  |  |  |  | 0.286 | 0.141 | 0.11 | 0.121 | 1 | 0.12 | 0.129 | 0.172 |  |  |  |  | 1.11 | 0.947 |
| COR-L 105 | 0.487 | 0.248 |  |  |  |  | 0.392 | 0.327 | 0.328 | 0.286 | 0.371 | 0.256 | 0.223 | 0.337 |  |  |  |  | 0.81 | 0.461 |
| Calu-6 | 0.886 | 0.803 |  |  |  |  |  |  |  |  | 1.1 | 0.33 | 0.245 | 0.27 |  |  |  |  | 0.94 | 0.838 |
| ChaGo-K-1 | 0.923 | 0.879 |  | 0.922 | 0.845 | 0.76 | 0.931 | 0.761 | 0.295 | 0.212 |  |  |  |  | 0.88 | 0.685 | 0.404 | 0.222 | 0.913 | 0.836 |
| EBC-1 | 0.104 | 0.0948 |  |  |  |  |  |  |  |  | 0.217 | 0.178 | 0.208 | 0.182 |  |  |  |  | 0.0955 | 0.0898 |
| EKVX | 0.267 | 0.267 | 0.686 | 0.693 | 0.423 | 0.219 | 0.387 | 0.368 | 0.274 | 0.179 | 0.241 | 0.188 | 0.128 | 0.108 | 0.647 | 0.56 | 0.584 | 0.289 | 0.519 |  |
| EMC-BAC-2 | 0.877 | 0.898 | 1.1 | 1.08 | 1.26 | 1.04 | 0.471 | 0.376 | 0.289 | 0.247 | 0.875 | 0.599 | 0.229 | 0.225 | 1.04 | 0.411 | 0.349 | 0.281 | 1.05 | 0.778 |
| EPLC-272H | 0.534 | 0.342 | 0.205 | 0.209 | 0.21 | 0.202 | 0.306 | 0.355 | 0.276 | 0.241 | 0.854 | 0.975 | 0.319 | 0.137 | 0.139 | 0.23 | 0.104 | 0.144 | 0.821 | 0.477 |
| H3255 | 0.472 | 0.171 | 0.794 | 0.619 | 0.516 | 0.238 | 0.337 | 0.316 | 0.323 | 0.284 | 0.22 | 0.258 | 0.173 | 0.159 | 0.832 | 0.746 | 0.548 | 0.211 | 0.808 | 0.624 |
| HCC-44 |  |  | 1.01 | 1.02 | 0.984 | 0.96 | 0.992 | 1 | 0.557 | 0.698 | 0.922 | 0.641 | 0.23 | 0.188 | 1.04 | 1.05 | 1.02 | 0.971 |  |  |
| IA-LM | 1.19 | 1.03 |  |  |  |  |  |  |  |  | 0.793 | 0.27 | 0.0791 | 0.0891 |  |  |  |  | 1.31 | 1.12 |
